From patent US12668591B2, “1,2,4-oxadiazole derivatives as histone deacetylase 6 inhibitors” (Oryzon Genomics, S.A., priority 2017, dated 2026)

Legend:
[1] = target: T1, HDAC6 (Homo sapiens, UniProt Q9UBN7); experiment: HDAC6 enzyme inhibition assay (fluorimetric); assay type: biochemical; details: 1 μM compound; 3 h pre-incubation; recombinant full length HDAC6; read-out: HDAC6 % inh @ 1 μM
T1 sequence (Q9UBN7 1-1215): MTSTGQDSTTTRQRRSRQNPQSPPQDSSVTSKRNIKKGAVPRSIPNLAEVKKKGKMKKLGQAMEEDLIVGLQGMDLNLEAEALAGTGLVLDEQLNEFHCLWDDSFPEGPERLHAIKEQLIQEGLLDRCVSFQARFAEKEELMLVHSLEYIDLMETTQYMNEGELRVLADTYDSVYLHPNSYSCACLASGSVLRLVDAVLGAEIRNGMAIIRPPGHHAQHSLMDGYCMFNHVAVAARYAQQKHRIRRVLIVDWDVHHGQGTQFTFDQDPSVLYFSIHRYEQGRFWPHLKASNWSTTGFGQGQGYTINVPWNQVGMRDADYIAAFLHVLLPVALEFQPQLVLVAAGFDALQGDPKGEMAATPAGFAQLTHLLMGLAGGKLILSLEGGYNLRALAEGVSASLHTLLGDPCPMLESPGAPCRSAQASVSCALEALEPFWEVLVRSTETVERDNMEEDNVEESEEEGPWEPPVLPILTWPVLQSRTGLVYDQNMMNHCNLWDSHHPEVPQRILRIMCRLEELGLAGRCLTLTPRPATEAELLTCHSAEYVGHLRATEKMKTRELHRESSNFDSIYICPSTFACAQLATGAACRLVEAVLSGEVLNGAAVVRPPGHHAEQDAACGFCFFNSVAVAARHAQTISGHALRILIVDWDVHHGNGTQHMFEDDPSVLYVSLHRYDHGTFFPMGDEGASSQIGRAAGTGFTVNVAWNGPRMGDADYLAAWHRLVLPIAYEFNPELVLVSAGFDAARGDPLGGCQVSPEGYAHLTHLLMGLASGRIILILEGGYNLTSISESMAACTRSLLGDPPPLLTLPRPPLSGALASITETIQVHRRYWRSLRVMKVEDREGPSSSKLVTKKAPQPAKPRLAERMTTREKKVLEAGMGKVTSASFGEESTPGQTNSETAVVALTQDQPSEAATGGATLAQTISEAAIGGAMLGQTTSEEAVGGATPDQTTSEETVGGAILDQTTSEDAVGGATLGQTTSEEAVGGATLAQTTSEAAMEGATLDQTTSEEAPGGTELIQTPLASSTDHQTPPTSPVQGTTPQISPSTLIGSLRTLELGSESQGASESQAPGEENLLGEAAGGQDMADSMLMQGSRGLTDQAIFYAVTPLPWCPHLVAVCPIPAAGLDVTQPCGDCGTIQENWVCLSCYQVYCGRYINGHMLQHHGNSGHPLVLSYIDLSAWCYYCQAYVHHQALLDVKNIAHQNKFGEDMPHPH
Experimental: HDAC6 and HDAC2 Enzyme Inhibition Assay
A fluorimetric assay was used for testing the activity of compounds of the invention against HDAC6 and HDAC2.
The compounds were dissolved in DMSO. Serial dilutions were prepared in DMSO and then diluted 1:10 in HDAC assay buffer (Tris-buffered solution, BPS Bioscience Inc. #50031). 5 μl of the compound dilution was added to a 50 μl reaction so that the final concentration of DMSO was 1%.
The compounds were pre-incubated in duplicate at RT for 3 hours in a mixture containing HDAC assay buffer, 5 μg BSA and recombinant HDAC enzyme (see table above). The enzymatic reactions were initiated by the addition of a fluorogenic, acetylated peptide substrate based on a histone protein (BPS Bioscience Inc. #50037) to a final concentration of 10 μM. The enzymatic reaction proceeded for 30 minutes at 37° C. Then, 50 μl of 2× HDAC Developer, which contains peptidase activity and Trichostatin A (BPS Bioscience Inc. #50030) was added and the plate was incubated at RT for an additional 15 minutes. Fluorescence intensity was measured at an excitation of 360 nm and an emission of 460 nm using a Tecan Infinite M1000 microplate reader.
Trichostatin A (TSA, Selleckchem #S1045) was used as reference inhibitor.
The fluorescent intensity data were analyzed using the computer software Graphpad Prism (GraphPad Software, San Diego, CA). 100% activity was defined as the fluorescent intensity (Ft) in the absence of the compound. 0% activity was defined as the fluorescent intensity (Fb) in the absence of the enzyme. The percent activity in the presence of each compound was calculated according to the following equation: % activity=(F−Fb)/(Ft−Fb), where F=the fluorescent intensity in the presence of the compound.

[2] = target: T1, HDAC6; experiment: In vitro cell-based assay: acetylation levels of Alpha-Tubulin by Western Blot in MOLP8 cells; design: endogenous in cells; host or cells: MOLP8; details: 18 h, acetyl-alpha-tubulin relative band intensity, ACY-1215 1 μM = 100%
Experimental: In Vitro Cell-Based Assay
In order to determine the cellular activity of HDAC6 upon treatment with HDAC6 inhibitors, acetylation levels of Alpha-Tubulin (a HDAC6-specific substrate) were measured by Western Blot. For this, MOLP8 cells were seeded in 6-well plates at a cell density of 500.000 cells/well and treated with the selected compounds at 5 and 1 μM for 18 h at 37° C. and 5% CO2 in a humidified tissue culture incubator. Consecutively, cell pellets were collected and whole protein extracts prepared using RIPA buffer (SIGMA) supplemented with 1× protease inhibitors (cOmplete mini, Roche). Protein concentration was determined with Bradford's reagent (Bio-Rad) as per manufacturer's instructions, and 7 μg of total protein were loaded into pre-cast 10% NuPAGE Novex gels (Life Technologies). Gels were run in […] (Life Technologies) and proteins were transferred using the iBlot 2 Dry Blotting System (Life Technologies). Blots were subsequently rinsed in distilled water and stained with Ponceau S solution (SIGMA). Blots were then washed in distilled water to remove Ponceau excess and scanned with the Epson Perfection V600 Photo professional Scanner. After this, blots were de-stained and blocked in 5% milk/PBS-Tween 0.1% for 1 h at room temperature followed by incubation with anti-Acetyl-alpha Tubulin (SIGMA cat. #T7451, 1:10.000 dilution) and anti-Beta-actin (SIGMA, cat. #A5316, 1:2.000 dilution) primary antibodies in 5% milk/PBS-T 0.1%, overnight at 4° C. on a shaking platform. After incubation, blots were washed 3 times for 5 minutes each in PBS-Tween 0.5% and incubated with anti-mouse HRP-conjugated secondary antibody (Jackson Immuno Research, cat. #115-035-068) at 1:8.000 in 5% milk/PBS-Tween 0.1%, 1 h at room temperature on a shaking platform. After 3 washes of 5 minutes each with PBS-Tween 0.5% and 1 wash in PBS 1×, blots were developed with ECL Plus (GE Healthcare) and the chemiluminescent reaction imaged with the G:Box Chemi XRQ (Syngene) imaging system. WB and Ponceau images were analysed with ImageJ software, WB band intensities normalized by either total protein or Beta-actin content and made relative to ACY-1215 1 μM (equivalent to 100%). ACY-1215 is a HDAC6 inhibitor, and is also known as ricolinostat, with chemical name 2-(diphenylamino)-N-[7-(hydroxyamino)-7-oxoheptyl]-5-pyrimidinecarboxamide. Percentage of band intensities was classified as follows: […]

Compound | inhibition at 1 µM [1] [%] | Cellular activity @1 uM [2] | Cellular activity @5 uM [2]
CCCCn1ccc2cc(-c3cc(-c4noc(C(F)(F)F)n4)ccn3)ncc21 [Example 1, 3-(2-(1-Butyl-1H-pyrrolo[2,3-c]pyridin-5-yl)pyridin-4-yl)-5-(trifluoromethyl)-1,2,4-oxadiazole] | 79 | − (<50) | + (50-150)
CCCn1cc(CN2CCOCC2)c2cc(-c3cc(-c4noc(C(F)(F)F)n4)ccn3)ncc21 [Example 1h, 4-((1-Propyl-5-(4-(5-(trifluoromethyl)-1,2,4-oxadiazol-3-yl)pyridin-2-yl)-1H-pyrrolo[2,3-c]pyridin-3-yl)methyl)morpholine] | 96 | + (50-150) | ++ (150-300)
CN(CCO)CCCOc1ccc(-c2cc(-c3noc(C(F)(F)F)n3)ccn2)nc1 [Example 1ax, 2-(Methyl(3-((4′-(5-(trifluoromethyl)-1,2,4-oxadiazol-3-yl)-[2,2′-bipyridin]-5-yl)oxy)propyl)amino)ethan-1-ol] |  | + (50-150) | + (50-150)
FC(F)(F)c1nc(-c2ccnc(-c3cc(OCCN4CCOCC4)ccn3)c2)no1 [Example 1t, 4-(2-((4′-(5-(Trifluoromethyl)-1,2,4-oxadiazol-3-yl)-[2,2′-bipyridin]-4-yl)oxy)ethyl)morpholine] | 88 | − (<50) | + (50-150)
CCCCn1cc(CO)c2cc(-c3cc(-c4noc(C(F)(F)F)n4)ccn3)ncc21 [Example 1aj, (1-butyl-5-(4-(5-(trifluoromethyl)-1,2,4-oxadiazol-3-yl)pyridin-2-yl)-1H-pyrrolo[2,3-c]pyridin-3-yl)methanol] |  | + (50-150) | + (50-150)
O=C(NC1CCCNC1)c1ccnc(-c2cc(-c3noc(C(F)(F)F)n3)ccn2)c1 (stereo not drawn) [Example 1af, N-(Piperidin-3-yl)-4′-(5-(trifluoromethyl)-1,2,4-oxadiazol-3-yl)-[2,2′-bipyridine]-4-carboxamide] |  | + (50-150) | + (50-150)
COCCn1nc(-c2cc(-c3noc(C(F)(F)F)n3)ccn2)c2ncccc21 [Example 1aaa, 3-(2-(1-(2-Methoxyethyl)-1H-pyrazolo[4,3-b]pyridin-3-yl)pyridin-4-yl)-5-(trifluoromethyl)-1,2,4-oxadiazole] |  | + (50-150) | + (50-150)
FC(F)(F)c1nc(-c2ccnc(-c3cc4c(ccn4CC4CCOCC4)cn3)c2)no1 [Example 1r, 3-(2-(1-((Tetrahydro-2H-pyran-4-yl)methyl)-1H-pyrrolo[3,2-c]pyridin-6-yl)pyridin-4-yl)-5-(trifluoromethyl)-1,2,4-oxadiazole] | 92 | ++ (150-300) | ++ (150-300)

Second part, the molecule after the results:

inhibition at 1 µM [1] [%] | Cellular activity @1 uM [2] | Cellular activity @5 uM [2] | Compound
78 | + (50-150) | ++ (150-300) | CCCCn1c(C(=O)NCC)cc2cc(-c3cc(-c4noc(C(F)(F)F)n4)ccn3)ncc21 [Example 1d, 1-Butyl-N-ethyl-5-(4-(5-(trifluoromethyl)-1,2,4-oxadiazol-3-yl)pyridin-2-yl)-1H-pyrrolo[2,3-c]pyridine-2-carboxamide]
 | + (50-150) | ++ (150-300) | Cn1nc(-c2cc(-c3noc(C(F)(F)F)n3)ccn2)c2ncccc21 [Example 7a, 3-(2-(1-Methyl-1H-pyrazolo[4,3-b]pyridin-3-yl)pyridin-4-yl)-5-(trifluoromethyl)-1,2,4-oxadiazole]
 | − (<50) | + (50-150) | CN(CCCN1CCC(F)(F)CC1)c1ccc(-c2cc(-c3noc(C(F)(F)F)n3)ccn2)nc1 [Example 1l, N-(3-(4,4-Difluoropiperidin-1-yl)propyl)-N-methyl-4′-(5-(trifluoromethyl)-1,2,4-oxadiazol-3-yl)-[2,2′-bipyridin]-5-amine]
 | − (<50) | ++ (150-300) | CCCn1ccc2cc(-c3cc(-c4noc(C(F)(F)F)n4)ccn3)ncc21 [Example 1a, 3-(2-(1-Propyl-1H-pyrrolo[2,3-c]pyridin-5-yl)pyridin-4-yl)-5-(trifluoromethyl)-1,2,4-oxadiazole]
92 | + (50-150) | + (50-150) | FC(F)(F)c1nc(-c2ccnc(-c3cc4c(CN5CCCCC5)n[nH]c4cn3)c2)no1 [Example 1aa, 3-(2-(3-(Piperidin-1-ylmethyl)-1H-pyrazolo[3,4-c]pyridin-5-yl)pyridin-4-yl)-5-(trifluoromethyl)-1,2,4-oxadiazole]
 | − (<50) | + (50-150) | COCCn1ncc2cc(-c3cc(-c4noc(C(F)(F)F)n4)ccn3)ncc21 [Example 1ay, 3-(2-(1-(2-Methoxyethyl)-1H-pyrazolo[3,4-c]pyridin-5-yl)pyridin-4-yl)-5-(trifluoromethyl)-1,2,4-oxadiazole]
 | + (50-150) | + (50-150) | CCn1nc(-c2cc(-c3noc(C(F)(F)F)n3)ccn2)c2ncccc21 [Example 1aab, 3-(2-(1-Ethyl-1H-pyrazolo[4,3-b]pyridin-3-yl)pyridin-4-yl)-5-(trifiuoromethyl)-1,2,4-oxadiazole]
